Source: patent publication US20040057926A1, “Modulation of the immune response through the manipulation of arginine levels” (LSU Medical Center, priority 2002, published 2004)

What was measured:
[1] = system: Jurkat cells; experiment: Co-culture in transwells of stimulated PM and Jurkat cells, CD3ζ expression; type: cell-based; settings: for CD3ζ in Jurkat cells co-cultured with PM stimulated with IL-4+IL-13: NOHA 100 μM, Nor-NOHA 50 μM, L-Arg 2 mM, L-NIL 5 μg/ml, catalase 200 U/ml, L-NMMA, L-NNA, L-NAME 1 mM
Description: (§1) PM were cultured in 6 well plates in RPMI containing 150 μM L-Arg and stimulated with murine rIL-4 (50 U/ml) and murine rIL-13 (50 ng/ml), or murine rIFN-γ (100 U/ml) for 24 hours. Then 1×10^6 normal T-cells stimulated with anti-CD3 plus anti-CD28 or 1×10^6 Jurkat cells, were cultured in the top chamber of a transwell system having 0.4 μm pores (Falcon, Franklin lakes, N.J.). CD3ζ expression was measured in Jurkat cells or T lymphocytes at different time points. PM were detached using trypsin/EDTA and the expression of protein and RNA for CAT-2B, ASE I, ASE II and iNOS was tested by western blot and northern blot respectively. Cytoplasmic extracts from PM were used to test ASE activity. Supernatants from stimulated PM were used to measure NO production using the Griess reagent method (Molecular Probes, Eugene, Oreg.). In addition, the extra-cellular concentration of L-Arg was tested in supernatants by HPLC (Dr. Gu Yao Wu laboratory, University of Texas) as described previously. O'Quinn, P. R., D. A. Knabe, and G. Wu. 2002. Arginine catabolism in lactating porcine mammary tissue. J Anim Sci. 80:467-474.
Flow cytometry analysis was performed as previously described. Taheri, F., J. B. Ochoa, Z. Faghiri, K. Culotta, H. J. Park, M. S. Lan, A. H. Zea, and A. C. Ochoa. 2001. L-Arginine regulates the expression of the T-cell receptor zeta chain (CD3zeta) in Jurkat cells. Clin Cancer Res 7:958s-965s. Briefly, 5×10^5 Jurkat cells or T lymphocytes were washed once with Dulbecco phosphate-buffered saline 1× (D-PBS) and resuspended in 200 μL of D-PBS containing 1 μg of anti-CD3ε or isotype control. Cells were incubated for 15 min at 4° C., washed with D-PBS and resuspended in 200 μl D-PBS containing 500 μg/ml of digitonin plus 1 μg of anti-CD3ζ or 1 μg of isotypic control. Cells were incubated for 8 minutes after which they were washed and resuspended in 400 μl of D-PBS. Fluorescence acquisition and analysis were done using a Coulter-EPICS XL flow cytometer (Beckman-Coulter) with a 488 nm argon laser. The data were expressed as mean channel fluorescence intensity (MFI).

[2] = system: Jurkat cells; experiment: Proliferation of Jurkat cells with H. pylori sonicate (3H-thymidine); type: cell-based; settings: NOHA 10 μg/ml, L-arginine 2 mM; sonicate 50 μg/ml
Description: Unless otherwise stated, the cells were always cultured in RPMI 1640 (Gibco Life-Technologies; Rockville, Md.) which contains 1104 μM L-arginine, 2.5 mM of L-glutamine, (Gibco), 25 mM HEPES (Gibco), 100 μg/ml of penicillin/streptomycin (Gibco), and 10% heat inactivated FCS (Hyclone). Jurkat cells were maintained at 0.5×10^6/ml. For proliferation assays Jurkat cells or peripheral blood mononuclear cells (PBMC) were placed at 2×10^5/well in round-bottom 96-well plates (Corning; Corning, N.Y.) and incubated for 2 h with increasing concentrations of the H. pylori sonicate ranging from 0.01 μg/ml to 100 μg/ml. After this, 30 ng/ml of anti-CD3 (Ortho Diagnostics, Raritan, N.J.) and 100 ng/ml of anti-CD28 (Becton-Dickinson Biosciences; Palo Alto, Calif.) were added to the PBMC. Jurkat cells were incubated for an additional 24 h and the PBMC for 48 h. […] The cells were collected onto glass fiber filters (Unifilter GF/B; Packard Bioscience; Meriden, Conn.) and radioactivity was counted in a Beta counter (Microplate Scintillation and Luminiscence Counter, TopCount, Packard).
[…] After addition of the sonicate plus NOHA or sonicate plus L-arginine mixture to the Jurkat cells, 1.0 μCi of ^3H-thymidine (NEN) was added per well, the cells were incubated at 37° C. for 18 h, harvested onto filters and counted in a β-counter (Packard).

[3] = system: peritoneal macrophages (PM); experiment: Extra-cellular L-Arg concentration in supernatants of peritoneal macrophages (HPLC); type: cell-based, mice; settings: for extra-cellular L-Arg levels (mean of three experiments): L-Arg 2 mM, NOHA 100 μM, Nor-NOHA 50 μM; for rapid decrease in the extra-cellular levels of L-Arg: PM stimulated with IL-4+IL-13
Description: Jurkat T-cells, a CD4^+ cell line (Clone E6-1) (ATCC, Manassas, Va.) and normal stimulated T-cells were used to test the effect of ASE I, ASE II and iNOS produced by PM on CD3ζ expression. Six-week old female C57BL/6 mice were used to isolate peritoneal macrophages (PM). Briefly, 3 ml of thioglycolate-brewer (Becton Dickinson, San Jose, Calif.) were injected into the peritoneal cavity of mice for 3 days. Mice were then sacrificed and PM isolated by washing the peritoneum with HBSS. After 2 days of culture in RPMI with 4% fetal bovine serum, unattached cells were washed off and attached cells were used in co-cultures with Jurkat or normal T-cells.
as §1

[4] = PM stimulated with IL-4 + IL-13

Row | SMILES | re-expression of CD3ζ on addition after 24 hours of co-culture ([1]; 2 mM added, CD3ζ tested 24 hours later) | CD3ζ in Jurkat cells co-cultured with PM stimulated with IL-4+IL-13 [1] | Jurkat cell proliferation in the presence of H. pylori sonicate [2] | extra-cellular L-Arg levels (mean of three experiments) ([3]; Non-stimulated PM) [µM] | extra-cellular L-Arg levels (mean of three experiments) [3, 4] [µM] | rapid decrease in the extra-cellular levels of L-Arg [3]
1 | N=C(N)NCCC[C@H](N)C(=O)O [L-arginine] | induced the re-expression of CD3ζ | prevented the decrease of CD3ζ | prevented a decrease in cell proliferation | 1267 | 59.8 | partially blocked the rapid decrease
2 | NC(=NCCC[C@H](N)C(=O)O)NO [NOHA, NG-hydroxy-L-arginine] |  | prevented the decrease of CD3ζ | prevented the decrease in Jurkat cell proliferation | 101.6 | 75.6 | partially blocked the rapid decrease
